Measurements published in patent publication US10471050B2, “2-OXO-1,2-dihydropyridine-3,5-dicarboxamide compounds as bromodomain inhibitors” (GlaxoSmithKline Intellectual Property (No. 2) Limited, priority 2015, dated 2019).
Like-named read-outs stand apart in the source and are kept apart here.

Biological target: T1, BRD4 BD2 (Homo sapiens, UniProt O60885, Y97A)
T1 construct: BRD4 (1-477) (Y97A) and (Y390A); made in house; host or cells: E. coli (pET15b vector)
Experiment: BRD4 BD2 TR-FRET competition assay
Format: binding
Protocol: Bromodomain binding was assessed utilising a time resolved fluorescent resonance energy transfer (TR-FRET) competition assay. To enable this approach a known, high affinity, pan-BET interacting small molecule was labelled with Alexa Fluor® 647, which is a far-red-fluorescent dye (Reference Compound X). Reference Compound X acts as a reporter of bromodomain binding and is the acceptor fluorophore component of the TR-FRET pair. Europium chelate, conjugated to an anti-6*His antibody, was utilised as the donor fluorophore in the TR-FRET pair. […] A TR-FRET signal is generated when the donor and acceptor fluorophores are in close proximity, between 20-80 Å, which is enabled in this assay by binding of Reference Compound X to the bromodomain protein.
In order to generate a TR-FRET signal, donor fluorophore is excited by a laser at λ337 nm, which subsequently leads to emission at λ618 nm. If the acceptor fluorophore is in close proximity then energy transfer can occur, which leads to emission of Alexa Fluor® 647 at λ665 nm. In the presence of competitor compound, Reference Compound X can be displaced from binding to the bromodomain. If displacement occurs, the acceptor fluorophore is no longer in proximity to the donor fluorophore, which prevents fluorescent energy transfer and, subsequently, a loss of Alexa Fluor® 647 emission at λ665 nm.
The competition of the compounds of formula (I) with Reference Compound X for binding to the BET family (BRD2, BRD3, BRD4 and BRDT) was assessed using protein truncates spanning both bromodomain 1 (BD1) and bromodomain 2 (BD2). In order to monitor differential binding to either BD1 or BD2, single residue mutations of key tyrosines to alanine were made in the acetyl lysine binding pockets. To validate this approach, a double residue mutant tandem domain protein was produced for each of the BET family members. Utilising a Fluorescence Polarisation approach, binding affinities for each of the single and double mutants for Reference Compound X were determined.
Final purification was completed by Superdex 200 prep grade size exclusion column. Purified protein was stored at −80° C. in 20 mM HEPES pH 7.5 and 100 mM NaCl.
All assay components were dissolved in an assay buffer composing of 50 mM HEPES pH7.4, 50 mM NaCl, 5% Glycerol, 1 mM DTT and 1 mM CHAPS. Reference Compound X was diluted, in assay buffer containing 20 nM single mutant, tandem bromodomain protein, to a concentration equivalent to 2*Kd for this bromodomain. The solution containing bromodomain and Reference Compound X was added to dose response dilutions of test compound or DMSO vehicle (a maximum of 0.5% DMSO is used in this assay) in Greiner 384 well black low volume microtitre plates and subsequently incubated for 30 minutes at room temperature. An equal volume of 3 nM of anti-6*His Europium chelate was added to all wells, followed by a further 30 minute incubation at room temperature. TR-FRET was detected using a Perkin Elmer Multimode plate reader, by exciting the donor fluorophore at λ337 nm and subsequently, after a delay of 50 μsecs, measuring emission of the donor and acceptor fluorophores at λ615 nm and λ665 nm, respectively. In order to control these assays, 16 replicates each of uninhibited (DMSO vehicle) and inhibited (10*IC50 concentrations of Example 11 of WO 2011/054846A1) TR-FRET assays were included on every microtitre plate.
cA four parameter curve fit of the following form was then applied: y=a+((b−a)/(1+(10^x/10^c)^d)
Where ‘a’ is the minimum, ‘b’ is the Hill slope, ‘c’ is the pIC50 and ‘d’ is the maximum.

[1] = single mutant tandem BRD4, read-out: pIC50 in the BRD4 BD2 assay (converted)
[2] = average of N recorded values, read-out: BRD4 BD2 IC50 (average value) (converted)

IC50 [1] | IC50 [2] | Structure (SMILES)
100 to 1000 nM | – | CNC(=O)c1cc(C(=O)NCCS(C)(=O)=O)cn(Cc2ccccc2)c1=O [Example 45, 1-Benzyl-N^3-methyl-N^5-(2-(methylsulfonyl)ethyl)-2-oxo-1,2-dihydropyridine-3,5-dicarboxamide]
100 to 1000 nM | – | CNC(=O)c1cc(C(=O)NCCCOC)cn(Cc2ccccc2)c1=O [Example 42, 1-Benzyl-N^5-(3-methoxypropyl)-N^3-methyl-2-oxo-1,2-dihydropyridine-3,5-dicarboxamide]
1000 to 100000 nM | – | CNC(=O)c1cc(C(=O)NC)c(=O)n(Cc2cccc(C#N)c2)c1 [Example 43, 1-(3-Cyanobenzyl)-N^3,N^5-dimethyl-2-oxo-1,2-dihydropyridine-3,5-dicarboxamide]
≤ 100 nM | – | CNC(=O)c1cc(C(=O)Nc2cnn(C)c2)cn(Cc2ccccc2)c1=O [Example 53, 1-Benzyl-N^3-methyl-N^5-(1-methyl-1H-pyrazol-4-yl)-2-oxo-1,2-dihydropyridine-3,5-dicarboxamide]
100 to 1000 nM | – | CNC(=O)CCNC(=O)c1cc(C(=O)NC)c(=O)n(Cc2ccccc2)c1 [Example 35, 1-Benzyl-N^3-methyl-N^5-(3-(methylamino)-3-oxopropyl)-2-oxo-1,2-dihydropyridine-3,5-dicarboxamide]
100 to 1000 nM | – | CNC(=O)c1cc(C(=O)NCCC#N)cn(Cc2ccccc2)c1=O [Example 37, 1-Benzyl-N^5-(2-cyanoethyl)-N^3-methyl-2-oxo-1,2-dihydropyridine-3,5-dicarboxamide]
100 to 1000 nM | – | CNC(=O)c1cc(C(=O)NCCCC#N)cn(Cc2ccccc2)c1=O [Example 36, 1-Benzyl-N^5-(3-cyanopropyl)-N^3-methyl-2-oxo-1,2-dihydropyridine-3,5-dicarboxamide]
100 to 1000 nM | – | CNC(=O)c1cc(C(=O)NCCCN)cn(Cc2ccccc2)c1=O [Example 38, N^5-(3-Aminopropyl)-1-benzyl-N^3-methyl-2-oxo-1,2-dihydropyridine-3,5-dicarboxamide]
100 to 1000 nM | – | CNC(=O)c1cc(C(=O)NCCc2c[nH]cn2)cn(Cc2cccc(C)c2F)c1=O [Example 49, N^5-(2-(1H-Imidazol-4-yl)ethyl)-1-(2-fluoro-3-methylbenzyl)-N3-methyl-2-oxo-1,2-dihydropyridine-3,5-dicarboxamide]
100 to 1000 nM | – | CNC(=O)c1cc(C(=O)NCCCN(C)C)cn(Cc2ccccc2)c1=O [Example 47, 1-Benzyl-N^5-(3-(dimethylamino)propyl)-N^3-methyl-2-oxo-1,2-dihydropyridine-3,5-dicarboxamide]
100 to 1000 nM | – | CNC(=O)c1cc(C(=O)NCCc2ccn[nH]2)cn(Cc2ccccc2)c1=O [Example 50, N^5-(2-(1H-Pyrazol-5-yl)ethyl)-1-benzyl-N^3-methyl-2-oxo-1,2-dihydropyridine-3,5-dicarboxamide]
1000 to 100000 nM | – | CNC(=O)c1cc(C(=O)NCC(C)OC)cn(Cc2ccccc2)c1=O (stereo not drawn) [Example 29, 1-Benzyl-N^5-(2-methoxypropyl)-N^3-methyl-2-oxo-1,2-dihydropyridine-3,5-dicarboxamide]

The remaining lines, values behind:

Structure (SMILES) | IC50 [1] | IC50 [2]
CNC(=O)c1cc(C(=O)NCCc2cnc[nH]2)cn(Cc2ccccc2)c1=O [Example 8, N^5-(2-(1H-Imidazol-5-yl)ethyl)-1-benzyl-N^3-methyl-2-oxo-1,2-dihydropyridine-3,5-dicarboxamide] | 100 to 1000 nM | –
CCNC(=O)c1cc(C(=O)NC)c(=O)n(Cc2cccc(OC)c2)c1 [Example 18, N^5-ethyl-1-(3-methoxybenzyl)-N^3-methyl-2-oxo-1,2-dihydropyridine-3,5-dicarboxamide] | 100 to 1000 nM | –
CNC(=O)CCCNC(=O)c1cc(C(=O)NC)c(=O)n(Cc2ccccc2)c1 [Example 5, 1-Benzyl-N^3-methyl-N^5-(4-(methylamino)-4-oxobutyl)-2-oxo-1,2-dihydropyridine-3,5-dicarboxamide] | 100 to 1000 nM | –
CNC(=O)c1cc(C(=O)NCCCc2ncc[nH]2)cn(Cc2ccccc2)c1=O [Example 11, N^5-(3-(1H-Imidazol-2-yl)propyl)-1-benzyl-N^3-methyl-2-oxo-1,2-dihydropyridine-3,5-dicarboxamide] | ≤ 100 nM | 63.1 nM
CCCCNC(=O)c1cc(C(=O)NC)c(=O)n(Cc2ccccc2)c1 [Example 3, 1-Benzyl-N^5-butyl-N^3-methyl-2-oxo-1,2-dihydropyridine-3,5-dicarboxamide] | 100 to 1000 nM | –
CCNC(=O)c1cc(C(=O)NC)c(=O)n(Cc2cccc(C)c2F)c1 [Example 22, N^5-Ethyl-1-(2-fluoro-3-methylbenzyl)-N^3-methyl-2-oxo-1,2-dihydropyridine-3,5-dicarboxamide] | 100 to 1000 nM | –
CNC(=O)c1cc(C(=O)NCCc2cn[nH]c2)cn(Cc2cccc(C)c2F)c1=O [Example 23, N^5-(2-(1H-Pyrazol-4-yl)ethyl)-1-(2-fluoro-3-methylbenzyl)-N^3-methyl-2-oxo-1,2-dihydropyridine-3,5-dicarboxamide] | 100 to 1000 nM | –
CNC(=O)c1cc(C(=O)NCCc2cn[nH]c2)cn(Cc2cccc(OC)c2)c1=O [Example 17, N^5-(2-(1H-pyrazol-4-yl)ethyl)-1-(3-methoxybenzyl)-N^3-methyl-2-oxo-1,2-dihydropyridine-3,5-dicarboxamide] | 100 to 1000 nM | –
CCNC(=O)c1cc(C(=O)NC)c(=O)n(Cc2cccc(OCCO)c2)c1 [Example 20, N^5-Ethyl-1-(3-(2-hydroxyethoxy)benzyl)-N^3-methyl-2-oxo-1,2-dihydropyridine-3,5-dicarboxamide] | 100 to 1000 nM | 251 nM
CNC(=O)c1cc(C(=O)NCCc2cn[nH]c2)cn(Cc2cccc(OCCO)c2)c1=O [Example 21, N^5-(2-(1H-pyrazol-4-yl)ethyl)-1-(3-(2-hydroxyethoxy)benzyl)-N^3-methyl-2-oxo-1,2-dihydropyridine-3,5-dicarboxamide] | 100 to 1000 nM | –
CNC(=O)c1cc(C(=O)NCCc2cn[nH]c2)cn(Cc2cccc3[nH]ccc23)c1=O [Example 26, 1-((1H-Indol-4-yl)methyl)-N^5-(2-(1H-pyrazol-4-yl)ethyl)-N^3-methyl-2-oxo-1,2-dihydropyridine-3,5-dicarboxamide] | ≤ 100 nM | –
CCNC(=O)c1cc(C(=O)NC)c(=O)n(Cc2cccc(C)c2)c1 [Example 14, N^5-Ethyl-N^3-methyl-1-(3-methylbenzyl)-2-oxo-1,2-dihydropyridine-3,5-dicarboxamide] | 100 to 1000 nM | –
CCCNC(=O)c1cc(C(=O)NC)c(=O)n(Cc2ccccc2)c1 [Example 2, 1-Benzyl-N^3-methyl-2-oxo-N^5-propyl-1,2-dihydropyridine-3,5-dicarboxamide] | 100 to 1000 nM | 126 nM
CNC(=O)c1cc(C(=O)NCCc2cn[nH]c2)cn(Cc2ccccc2)c1=O [Example 12, N^5-(2-(1H-Pyrazol-4-yl)ethyl)-1-benzyl-N^3-methyl-2-oxo-1,2-dihydropyridine-3,5-dicarboxamide] | ≤ 100 nM | –
CNC(=O)c1cc(C(=O)NCCC(F)(F)F)cn(Cc2ccccc2)c1=O [Example 7, 1-Benzyl-N^3-methyl-2-oxo-N^5-(3,3,3-trifluoropropyl)-1,2-dihydropyridine-3,5-dicarboxamide] | 100 to 1000 nM | –
CNC(=O)c1cc(C(=O)NCCc2c[nH]cn2)cn(Cc2cccc3[nH]ccc23)c1=O [Example 24, N^5-(2-(1H-Imidazol-4-yl)ethyl)-1-((1H-indol-4-yl)methyl)-N^3-methyl-2-oxo-1,2-dihydropyridine-3,5-dicarboxamide] | ≤ 100 nM | –
CNC(=O)c1cc(C(=O)NCCc2cn[nH]c2)cn(Cc2cccc(C)c2)c1=O [Example 13, N^5-(2-(1H-Pyrazol-4-yl)ethyl)-N^3-methyl-1-(3-methylbenzyl)-2-oxo-1,2-dihydropyridine-3,5-dicarboxamide] | ≤ 100 nM | 100 nM
